Measured values reported in article PMC9400870 (2022).

Key:
[1] = system: p(dAdT)2 (DNA, polymer) AT; assay: UV thermal denaturation, 260 nm; settings: Na+ (sodium cacodylate, I = 0.05 M), pH 7, polynucleotide 2×10^-5 M, per base
[2] = system: pApU (RNA, polymer) A/U; assay: fluorimetric titration, Scatchard fit; settings: Na+ (sodium cacodylate, I = 0.05 M); pH 7.0; compound 5×10^-7 M; n fixed at 0.1; per base
[3] = system: p(dGdC)2 (DNA, polymer) GC; assay: fluorimetric titration, Scatchard fit; settings: Na+ (sodium cacodylate, I = 0.05 M); pH 7.0; compound 5×10^-7 M; n fixed at 0.1; per base
[4] = system: p(dAdT)2 (DNA, polymer) AT; assay: fluorimetric titration, Scatchard fit; settings: Na+ (sodium cacodylate, I = 0.05 M); pH 7.0; compound 5×10^-7 M; n fixed at 0.1; per base
[5] = system: pApU (RNA, polymer) A/U; assay: UV thermal denaturation, 260 nm; settings: Na+ (sodium cacodylate, I = 0.05 M), pH 7, per base
[6] = r [compound]/[polynucleotide] = 0.3

ΔTm [1, 6] | log Ks [2] | log Ks [3] | log Ks [4] | ΔTm [5, 6] | ΔTm ([1]; r [compound]/[polynucleotide] = 0.2) | ΔTm ([5]; r [compound]/[polynucleotide] = 0.2, polynucleotide 2×10^-5 M) | Compound
2.0 ± 0.5 °C | 5.3 M^-1 | 5.9 M^-1 | 4.5 M^-1 | 0 ± 0.5 °C | – | – | C[n+]1ccc(C#Cc2ccc(C#Cc3cc[n+](C)cc3)cc2)cc1
– | 5.3 M^-1 | 7.0 M^-1 | 6.6 M^-1 | – | 37 ± 0.5 °C | 39.0 ± 0.5 °C | C[n+]1ccc(C#Cc2c3ccccc3c(C#Cc3cc[n+](C)cc3)c3ccccc23)cc1
7.0 ± 0.5 °C | 5.0 M^-1 | 5.1 M^-1 | 5.2 M^-1 | 1.0 ± 0.5 °C | – | – | C[n+]1ccc(C#Cc2c(F)c(F)c(C#Cc3cc[n+](C)cc3)c(F)c2F)cc1
